In patent US12195482B1 (Arcus Biosciences, Inc., priority 2022, dated 2025) one finds IC50 data, which are given here for 18 molecules.

The target in one assay is T1, p-AXL (Homo sapiens, UniProt P30530).
T1 construct: expressed in transfected cells; host or cells: HEK293T
T1 sequence (P30530 26-894): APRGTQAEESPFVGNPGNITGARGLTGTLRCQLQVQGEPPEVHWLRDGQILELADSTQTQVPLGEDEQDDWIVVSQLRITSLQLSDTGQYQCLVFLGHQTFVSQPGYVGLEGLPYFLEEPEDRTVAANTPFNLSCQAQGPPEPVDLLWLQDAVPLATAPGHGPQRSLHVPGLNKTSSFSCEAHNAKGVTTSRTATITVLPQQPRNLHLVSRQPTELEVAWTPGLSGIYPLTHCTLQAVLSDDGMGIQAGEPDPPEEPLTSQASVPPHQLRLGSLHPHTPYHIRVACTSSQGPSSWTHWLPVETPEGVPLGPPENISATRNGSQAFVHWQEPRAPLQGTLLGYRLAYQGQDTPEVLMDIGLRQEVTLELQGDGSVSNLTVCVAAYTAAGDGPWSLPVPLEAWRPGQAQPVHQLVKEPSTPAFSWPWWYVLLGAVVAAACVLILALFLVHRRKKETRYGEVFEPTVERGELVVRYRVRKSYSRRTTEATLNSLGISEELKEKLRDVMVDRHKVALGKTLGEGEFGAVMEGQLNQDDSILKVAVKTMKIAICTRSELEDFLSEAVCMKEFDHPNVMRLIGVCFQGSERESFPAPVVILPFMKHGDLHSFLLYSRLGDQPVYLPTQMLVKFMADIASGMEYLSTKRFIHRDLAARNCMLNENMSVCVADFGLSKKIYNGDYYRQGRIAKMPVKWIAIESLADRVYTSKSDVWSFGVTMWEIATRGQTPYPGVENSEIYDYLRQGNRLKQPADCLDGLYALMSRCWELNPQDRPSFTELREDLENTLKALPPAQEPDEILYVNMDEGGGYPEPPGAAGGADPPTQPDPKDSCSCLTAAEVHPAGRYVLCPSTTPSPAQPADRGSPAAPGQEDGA
As to the kind of experiment: Axl phosphorylation inhibition ELISA in HEK293T cells transfected with NanoLuc-tagged AXL. Format: cell-based. Particulars: 1 h compound incubation, media (OptiMEM). In a few lines:
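HEK293T cells transiently transfected one day earlier with NanoLuc-tagged AXL were exposed to 22-point 2-fold compound dilutions for 1 h at 37° C (70,000 cells/well), then lysed. Lysates captured on anti-phospho-tyrosine coated plates for 2 h; bound p-AXL read by NanoLuc luminescence; IC50 from 4-parameter logistic fit.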

Another assay deals with T2, Axl (Homo sapiens, UniProt P30530).
T2 sequence (P30530 26-894): T1 sequence (P30530 26-894)
Nature of the assay: Biochemical potency, HTRF KinEASE-TK kinase assay. Further details: purchased Invitrogen. The following applies: 5 nM AXL, 700 μM ATP. In a few lines:
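HTRF 665/620 readout after a 2 h RT kinase reaction (final 700 μM ATP, 800 nM biotinylated TK substrate, 1% DMSO, HEPES pH 7.4 buffer) gave percent activity. Final enzyme was 5 nM for AXL, 1 nM for TYRO3 or MER, each preincubated 1 h with compound.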

For `Cc1cc(F)cnc1-c1ccc(-c2n[nH]c3ncc(-c4ccc5c(c4)CC[C@@H](N4C6COCC4C6)CC5)cc23)cc1` [Example 28, 6-[(7S)-3-[3-[4-(5-Fluoro-3-methylpyridin-2-yl)phenyl]-1H-pyrazolo[3,4-b]pyridin-5-yl]-6,7,8,9-tetrahydro-5H-benzo[7]annulen-7-yl]-3-oxa-6-azabicyclo[3.1.1]heptane], the IC50 against p-AXL was 100 to 1000 nM; on Axl, below 100 nM.
For `O=C1CCCN1c1cccnc1-c1ccc(-c2n[nH]c3ncc(-c4ccc5c(c4)CC[C@@H](N4C6COCC4C6)CC5)cc23)cc1` [Example 177, 1-[2-(4-{5-[(7S)-7-{3-Oxa-6-azabicyclo[3.1.1]heptan-6-yl}-6,7,8,9-tetrahydro-5H-benzo[7]annulen-2-yl]-1H-pyrazolo[3,4-b]pyridin-3-yl}phenyl)pyridin-3-yl]pyrrolidin-2-one], the IC50 at p-AXL and against Axl was below 100 nM in each case.
With `Cc1cc(F)cnc1-c1ccc(-c2c[nH]c3ncc(-c4ccc5c(c4)CC[C@@H](N4C6COCC4C6)CC5)cc23)cc1` [Example 29, 6-[(7S)-3-[3-[4-(5-Fluoro-3-methylpyridin-2-yl)phenyl]-1H-pyrrolo[2,3-b]pyridin-5-yl]-6,7,8,9-tetrahydro-5H-benzo[7]annulen-7-yl]-3-oxa-6-azabicyclo[3.1.1]heptane], the IC50 on p-AXL is 100 to 1000 nM; at Axl, below 100 nM.
In the same order, the values of `Cc1cccnc1-c1ccc(-c2c[nH]c3ncc(-c4ccc5c(c4)CC[C@@H](N4C[C@@H]6C[C@H]4CO6)CC5)cc23)cc1` [Example 187, (4S)-5-[(7S)-2-{3-[4-(3-Methylpyridin-2-yl)phenyl]-1H-pyrrolo[2,3-b]pyridin-5-yl}-6,7,8,9-tetrahydro-5H-benzo[7]annulen-7-yl]-2-oxa-5-azabicyclo[2.2.1]heptane] are below 100 nM and below 100 nM.
The like results for `COc1cccnc1-c1ccc(-c2n[nH]c3ncc(-c4ccc5c(c4)CC[C@@H](N4C6COCC4C6)CC5)cc23)cc1` [Example 166, 6-[(7S)-2-{3-[4-(3-Methoxypyridin-2-yl)phenyl]-1H-pyrazolo[3,4-b]pyridin-5-yl}-6,7,8,9-tetrahydro-5H-benzo[7]annulen-7-yl]-3-oxa-6-azabicyclo[3.1.1]heptane] were, in that order, below 100 nM and below 100 nM.
The like results for `Cn1nncc1-c1ccc(-c2n[nH]c3ncc(-c4ccc5c(c4)CC[C@@H](N4C6COCC4C6)CC5)cc23)cc1` [Example 13, 6-[(7S)-2-{3-[4-(1-Methyl-1H-1,2,3-triazol-5-yl)phenyl]-1H-pyrazolo[3,4-b]pyridin-5-yl}-6,7,8,9-tetrahydro-5H-benzo[7]annulen-7-yl]-3-oxa-6-azabicyclo[3.1.1]heptane] were, in that order, 100 to 1000 nM and below 100 nM.
On to `CC(C)(C#N)c1cccnc1-c1ccc(-c2c[nH]c3ncc(-c4ccc5c(c4)CC[C@@H](N4C6COCC4C6)CC5)cc23)cc1` [Example 21, 2-Methyl-2-[2-[4-[5-[(7S)-7-(3-oxa-6-azabicyclo[3.1.1]heptan-6-yl)-6,7,8,9-tetrahydro-5H-benzo[7]annulen-3-yl]-1H-pyrrolo[2,3-b]pyridin-3-yl]phenyl]pyridin-3-yl]propanenitrile], for which the IC50 against p-AXL and against Axl was below 100 nM throughout.
Take `Cc1cccnc1-c1ccc(-c2c[nH]c3ncc(-c4ccc5c(c4)CC[C@@](C)(N4CCC[C@H]4C)CC5)cc23)cc1` [Example 172, 3-Methyl-2-(4-{5-[(7S)-7-methyl-7-[(2R)-2-methylpyrrolidin-1-yl]-6,7,8,9-tetrahydro-5H-benzo[7]annulen-2-yl]-1H-pyrrolo[2,3-b]pyridin-3-yl}phenyl)pyridine]: the IC50 against p-AXL and on Axl was below 100 nM each time.
`FC(F)(F)Oc1cccnc1-c1ccc(-c2c[nH]c3ncc(-c4ccc5c(c4)CC[C@@H](N4C6COCC4C6)CC5)cc23)cc1` [Example 103, 6-[(7S)-2-(3-{4-[3-(Trifluoromethoxy)pyridin-2-yl]phenyl}-1H-pyrrolo[2,3-b]pyridin-5-yl)-6,7,8,9-tetrahydro-5H-benzo[7]annulen-7-yl]-3-oxa-6-azabicyclo[3.1.1]heptane]: the results for the IC50 against p-AXL and on Axl were above 1000 nM and below 100 nM, respectively.
In the same order, the values of `CN(C)C(=O)c1ccccc1-c1ccc(-c2n[nH]c3ncc(-c4ccc5c(c4)CC[C@@H](N4C6COCC4C6)CC5)cc23)cc1` [Example 12, N,N-Dimethyl-4′-{5-[(7S)-7-{3-oxa-6-azabicyclo[3.1.1]heptan-6-yl}-6,7,8,9-tetrahydro-5H-benzo[7]annulen-2-yl]-2H-pyrazolo[3,4-b]pyridin-3-yl}-[1,1′-biphenyl]-2-carboxamide] are below 100 nM and below 100 nM.
As for `c1cnc(-c2ccc(-c3c[nH]c4ncc(-c5ccc6c(c5)CC[C@@H](N5C7COCC5C7)CC6)cc34)cc2)c(C2CC2)c1` [Example 178, 6-[(7S)-2-{3-[4-(3-Cyclopropylpyridin-2-yl)phenyl]-1H-pyrrolo[2,3-b]pyridin-5-yl}-6,7,8,9-tetrahydro-5H-benzo[7]annulen-7-yl]-3-oxa-6-azabicyclo[3.1.1]heptane], the IC50 on p-AXL and at Axl was below 100 nM in each case.
In the case of `c1ccc(-c2ccc(-c3n[nH]c4ncc(-c5ccc6c(c5)CC[C@@H](N5C7COCC5C7)CC6)cc34)cc2)nc1` [Example 154, 6-[(7S)-2-{3-[4-(Pyridin-2-yl)phenyl]-2H-pyrazolo[3,4-b]pyridin-5-yl}-6,7,8,9-tetrahydro-5H-benzo[7]annulen-7-yl]-3-oxa-6-azabicyclo[3.1.1]heptane], the IC50 against p-AXL and against Axl was below 100 nM in each case.
`c1cnc(-c2ccc(-c3n[nH]c4ncc(-c5ccc6c(c5)CC[C@@H](N5C7COCC5C7)CC6)cc34)cc2)c(C2CC2)c1` [Example 179, 6-[(7S)-2-{3-[4-(3-Cyclopropylpyridin-2-yl)phenyl]-1H-pyrazolo[3,4-b]pyridin-5-yl}-6,7,8,9-tetrahydro-5H-benzo[7]annulen-7-yl]-3-oxa-6-azabicyclo[3.1.1]heptane]: the values for the IC50 on p-AXL and on Axl were 100 to 1000 nM and below 100 nM, respectively.
`Cc1cc(-c2n[nH]c3ncc(-c4ccc5c(c4)CC[C@@H](N4C6COCC4C6)CC5)cc23)ccc1-c1ccccn1` [Example 159, 6-[(7S)-2-{3-[3-Methyl-4-(pyridin-2-yl)phenyl]-2H-pyrazolo[3,4-b]pyridin-5-yl}-6,7,8,9-tetrahydro-5H-benzo[7]annulen-7-yl]-3-oxa-6-azabicyclo[3.1.1]heptane]: the IC50 against p-AXL is 100 to 1000 nM; at Axl, below 100 nM.
With `CN(C)C(=O)c1cccnc1-c1ccc(-c2c[nH]c3ncc(-c4ccc5c(c4)CC[C@@H](N4C6COCC4C6)CC5)cc23)cc1` [Example 165, N,N-Dimethyl-2-(4-{5-[(7S)-7-{3-oxa-6-azabicyclo[3.1.1]heptan-6-yl}-6,7,8,9-tetrahydro-5H-benzo[7]annulen-2-yl]-1H-pyrrolo[2,3-b]pyridin-3-yl}phenyl)pyridine-3-carboxamide], the IC50 against p-AXL and against Axl was below 100 nM in each case.
For the molecule `CC(C)(O)c1cccnc1-c1ccc(-c2n[nH]c3ncc(-c4ccc5c(c4)CC[C@@H](N4C6COCC4C6)CC5)cc23)cc1` [Example 10, 2-[2-(4-{5-[(7S)-7-{3-Oxa-6-azabicyclo[3.1.1]heptan-6-yl}-6,7,8,9-tetrahydro-5H-benzo[7]annulen-2-yl]-1H-pyrazolo[3,4-b]pyridin-3-yl}phenyl)pyridin-3-yl]propan-2-ol], the IC50 against p-AXL and at Axl was below 100 nM throughout.
Regarding `Cc1nc(-c2ccc(-c3n[nH]c4ncc(-c5ccc6c(c5)CC[C@@H](N5C7COCC5C7)CC6)cc34)cc2)n(C)n1` [Example 23, 6-[(7S)-2-{3-[4-(1,3-Dimethyl-1H-1,2,4-triazol-5-yl)phenyl]-1H-pyrazolo[3,4-b]pyridin-5-yl}-6,7,8,9-tetrahydro-5H-benzo[7]annulen-7-yl]-3-oxa-6-azabicyclo[3.1.1]heptane], the IC50 on p-AXL and at Axl was below 100 nM throughout.
Regarding `c1cncc(-c2ccc(-c3c[nH]c4ncc(-c5ccc6c(c5)CC[C@@H](N5C7COCC5C7)CC6)cc34)cc2)c1` [Example 158, 6-[(7S)-2-{3-[4-(Pyridin-3-yl)phenyl]-1H-pyrrolo[2,3-b]pyridin-5-yl}-6,7,8,9-tetrahydro-5H-benzo[7]annulen-7-yl]-3-oxa-6-azabicyclo[3.1.1]heptane], the values for the IC50 against p-AXL and at Axl were 100 to 1000 nM and below 100 nM, respectively.
